Experimental data reported in ChEMBL document CHEMBL1201862, “PubChem BioAssay data set” (2004).
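In this assay, cells in 96-well plates receive the compound at five concentrations for 48 hours. Endpoints are linearly interpolated between the surrounding concentrations. Abbreviation: GI50, concentration required for 50% inhibition of growth.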 Calls of active or inactive are those of the source. Rule as the data show it: active = GI50 up to about 1.1 µM and inactive = higher.

Key:
Assay in all cases: growth of human tumour cells (NCI), 48 h
A498 = system: A498
A549 = system: A549
BT-549 = system: BT-549
CAKI-1 = system: CAKI-1
CCRF-CEM = system: CCRF-CEM
COLO 205 = system: COLO 205
DU-145 = system: DU-145
EKVX = system: EKVX
HCC 2998 = system: HCC 2998
HCT-116 = system: HCT-116
HCT-15 = system: HCT-15
HL-60 = system: HL-60
HOP-62 = system: HOP-62
HOP-92 = system: HOP-92
HT-29 = system: HT-29
IGROV-1 = system: IGROV-1
K562 = system: K562
LOX IMVI = system: LOX IMVI
M14 = system: M14
MCF7 = system: MCF7
MDA-MB-231 = system: MDA-MB-231
MDA-MB-435 = system: MDA-MB-435
MDA-N = system: MDA-N
MOLT-4 = system: MOLT-4
Malme-3M = system: Malme-3M
NCI-H226 = system: NCI-H226
NCI-H23 = system: NCI-H23
NCI-H460 = system: NCI-H460
NCI/ADR-RES = system: NCI/ADR-RES
OVCAR-3 = system: OVCAR-3
OVCAR-4 = system: OVCAR-4
OVCAR-5 = system: OVCAR-5
OVCAR-8 = system: OVCAR-8
PC-3 = system: PC-3
RXF 393 = system: RXF 393
SF-295 = system: SF-295
SF-539 = system: SF-539
SK-MEL-2 = system: SK-MEL-2
SK-MEL-5 = system: SK-MEL-5
SK-OV-3 = system: SK-OV-3
SN12C = system: SN12C
SNB-19 = system: SNB-19
SR = system: SR
SW-620 = system: SW-620
T47D = system: T47D
TK-10 = system: TK-10
U-251 = system: U-251
UACC-257 = system: UACC-257
UACC-62 = system: UACC-62
UO-31 = system: UO-31
786-0 = system: 786-0
ACHN = system: ACHN
KM12 = system: KM12
NCI-H522 = system: NCI-H522
RPMI-8226 = system: RPMI-8226
SF-268 = system: SF-268
SK-MEL-28 = system: SK-MEL-28
SNB-75 = system: SNB-75

In the case of `CC(C)(C)OC(=O)NC(Cc1ccccc1)C(=O)N[C@H]1c2ccsc2/C(=N/O)[C@H]1O` (stereo not given in full), the GI50 (A498) is reported as > 100 µM (inactive), the GI50 (A549) is reported as > 100 µM (inactive) and the GI50 (BT-549) is reported as > 100 µM (inactive). The GI50 (CAKI-1) was > 100 µM (inactive), the GI50 (CCRF-CEM) was > 100 µM (inactive) and the GI50 (COLO 205) was > 100 µM (inactive). For the same compound, the GI50 (DU-145) was > 100 µM (inactive), the GI50 (EKVX) was > 100 µM (inactive) and the GI50 (HCC 2998) was > 100 µM (inactive). For the same compound, the GI50 (HCT-116) was > 100 µM (inactive), the GI50 (HCT-15) was greater than 100 µM and the GI50 (HL-60) was 86.1 µM (inactive). The GI50 (HOP-62) was > 100 µM (inactive), the GI50 (HOP-92) was > 100 µM (inactive) and the GI50 (HT-29) was > 100 µM (inactive). The GI50 (IGROV-1) was > 100 µM (inactive), the GI50 (K562) was > 100 µM (inactive) and the GI50 (LOX IMVI) was > 100 µM (inactive). The GI50 (M14) was > 100 µM (inactive), the GI50 (MCF7) was > 100 µM (inactive) and the GI50 (MDA-MB-231) was > 100 µM (inactive). For the same compound, the GI50 (MDA-MB-435) was > 100 µM (inactive), the GI50 (MDA-N) was > 100 µM (inactive) and the GI50 (MOLT-4) was 83 µM (inactive). For the same compound, the GI50 (Malme-3M) was > 100 µM (inactive), the GI50 (NCI-H226) was > 100 µM (inactive) and the GI50 (NCI-H23) was > 100 µM (inactive). For the same compound, the GI50 (NCI-H460) was > 100 µM (inactive), the GI50 (NCI/ADR-RES) was > 100 µM (inactive) and the GI50 (OVCAR-3) was > 100 µM (inactive). For the same compound, the GI50 (OVCAR-4) was 35.2 µM (inactive), the GI50 (OVCAR-5) was > 100 µM (inactive) and the GI50 (OVCAR-8) was > 100 µM (inactive). For the same compound, the GI50 (PC-3) was > 100 µM (inactive), the GI50 (RXF 393) was > 100 µM (inactive) and the GI50 (SF-295) was > 100 µM (inactive). For the same compound, the GI50 (SF-539) was > 100 µM (inactive), the GI50 (SK-MEL-2) was > 100 µM (inactive) and the GI50 (SK-MEL-5) was > 100 µM (inactive). For the same compound, the GI50 (SK-OV-3) was > 100 µM (inactive), the GI50 (SN12C) was > 100 µM (inactive) and the GI50 (SNB-19) was > 100 µM (inactive). For the same compound, the GI50 (SR) was > 100 µM (inactive), the GI50 (SW-620) was > 100 µM (inactive) and the GI50 (T47D) was > 100 µM (inactive). For the same compound, the GI50 (TK-10) was > 100 µM (inactive), the GI50 (U-251) was > 100 µM (inactive) and the GI50 (UACC-257) was > 100 µM (inactive). For the same compound, the GI50 (UACC-62) was > 100 µM (inactive) and the GI50 (UO-31) was > 100 µM (inactive).

With `COc1cc(-c2nc3cc(F)ccc3s2)ccc1O` the GI50 (786-0) was 37.1 µM (inactive), the GI50 (A498) was 18.5 µM (inactive) and the GI50 (A549) was 67.5 µM (inactive). For the same compound, the GI50 (ACHN) was 89.5 µM (inactive), the GI50 (BT-549) was 20.6 µM (inactive) and the GI50 (CAKI-1) was 28.2 µM (inactive). For the same compound, the GI50 (CCRF-CEM) was 28.8 µM (inactive), the GI50 (COLO 205) was 16.4 µM (inactive) and the GI50 (DU-145) was 82.8 µM (inactive). For the same compound, the GI50 (EKVX) was 5.73 µM (inactive), the GI50 (HCC 2998) was 0.0622 µM (active) and the GI50 (HCT-116) was 62.7 µM (inactive). For the same compound, the GI50 (HCT-15) was 11.7 µM, the GI50 (HL-60) was 41 µM (inactive) and the GI50 (HT-29) was 39.3 µM (inactive). The GI50 (IGROV-1) was 10.9 µM (inactive), the GI50 (K562) was 82.8 µM (inactive) and the GI50 (KM12) was 18.6 µM (inactive). The GI50 (LOX IMVI) was 39.1 µM (inactive), the GI50 (M14) was 58.3 µM (inactive) and the GI50 (MCF7) was 4.61 µM (inactive). For the same compound, the GI50 (MDA-MB-231) was 34.2 µM (inactive), the GI50 (MDA-MB-435) was > 100 µM (inactive) and the GI50 (MDA-N) was 99.3 µM (inactive). The GI50 (MOLT-4) was 56.8 µM (inactive), the GI50 (Malme-3M) was 78.9 µM (inactive) and the GI50 (NCI-H226) was 26.4 µM (inactive). The GI50 (NCI-H23) was 42.2 µM (inactive), the GI50 (NCI-H460) was 70.5 µM (inactive) and the GI50 (NCI-H522) was 19.5 µM (inactive). The GI50 (NCI/ADR-RES) was 78.9 µM (inactive), the GI50 (OVCAR-3) was 12.8 µM (inactive) and the GI50 (OVCAR-4) was 21.9 µM (inactive). The GI50 (OVCAR-5) was > 100 µM (inactive), the GI50 (OVCAR-8) was > 100 µM (inactive) and the GI50 (PC-3) was 49 µM (inactive). For the same compound, the GI50 (RPMI-8226) was 41.1 µM (inactive), the GI50 (RXF 393) was > 100 µM (inactive) and the GI50 (SF-268) was 41.4 µM (inactive). The GI50 (SF-295) was 43.7 µM (inactive), the GI50 (SF-539) was 49.4 µM (inactive) and the GI50 (SK-MEL-28) was 33.8 µM (inactive). For the same compound, the GI50 (SK-MEL-2) was > 100 µM (inactive), the GI50 (SK-MEL-5) was 12.1 µM (inactive) and the GI50 (SK-OV-3) was 35.2 µM (inactive). For the same compound, the GI50 (SN12C) was 85.1 µM (inactive), the GI50 (SNB-19) was 83.2 µM (inactive) and the GI50 (SR) was 29.7 µM (inactive). The GI50 (SW-620) was > 100 µM (inactive), the GI50 (T47D) was 0.286 µM (active) and the GI50 (TK-10) was 33.7 µM (inactive). For the same compound, the GI50 (U-251) was 54.1 µM (inactive), the GI50 (UACC-257) was 19 µM (inactive) and the GI50 (UACC-62) was 36.6 µM (inactive). For the same compound, the GI50 (UO-31) was 34.8 µM (inactive).

In the case of `COc1ccc(-c2nc(-c3cnccn3)n(Cc3ccccc3)n2)cc1`, the GI50 (786-0) is reported as > 100 µM (inactive), the GI50 (A549) is reported as > 100 µM (inactive) and the GI50 (BT-549) is reported as > 100 µM (inactive). For the same compound, the GI50 (CCRF-CEM) was > 100 µM (inactive), the GI50 (COLO 205) was > 100 µM (inactive) and the GI50 (DU-145) was > 100 µM (inactive). For the same compound, the GI50 (HCC 2998) was > 100 µM (inactive), the GI50 (HCT-116) was > 100 µM (inactive) and the GI50 (HCT-15) was greater than 100 µM. For the same compound, the GI50 (HL-60) was > 100 µM (inactive), the GI50 (HOP-62) was > 100 µM (inactive) and the GI50 (HOP-92) was > 100 µM (inactive). The GI50 (HT-29) was > 100 µM (inactive), the GI50 (IGROV-1) was > 100 µM (inactive) and the GI50 (K562) was > 100 µM (inactive). The GI50 (KM12) was > 100 µM (inactive), the GI50 (LOX IMVI) was > 100 µM (inactive) and the GI50 (M14) was > 100 µM (inactive). For the same compound, the GI50 (MCF7) was > 100 µM (inactive), the GI50 (MDA-MB-231) was > 100 µM (inactive) and the GI50 (MDA-MB-435) was > 100 µM (inactive). The GI50 (MDA-N) was > 100 µM (inactive), the GI50 (MOLT-4) was > 100 µM (inactive) and the GI50 (NCI-H23) was > 100 µM (inactive). The GI50 (NCI-H460) was > 100 µM (inactive), the GI50 (NCI-H522) was > 100 µM (inactive) and the GI50 (NCI/ADR-RES) was > 100 µM (inactive). For the same compound, the GI50 (OVCAR-3) was > 100 µM (inactive), the GI50 (OVCAR-4) was > 100 µM (inactive) and the GI50 (OVCAR-5) was > 100 µM (inactive). The GI50 (OVCAR-8) was > 100 µM (inactive), the GI50 (PC-3) was > 100 µM (inactive) and the GI50 (RPMI-8226) was > 100 µM (inactive). For the same compound, the GI50 (RXF 393) was > 100 µM (inactive), the GI50 (SF-268) was > 100 µM (inactive) and the GI50 (SF-295) was > 100 µM (inactive). The GI50 (SF-539) was > 100 µM (inactive), the GI50 (SK-MEL-28) was > 100 µM (inactive) and the GI50 (SK-MEL-5) was > 100 µM (inactive). For the same compound, the GI50 (SK-OV-3) was > 100 µM (inactive), the GI50 (SN12C) was > 100 µM (inactive) and the GI50 (SNB-19) was > 100 µM (inactive). For the same compound, the GI50 (SNB-75) was 47.9 µM (inactive), the GI50 (SR) was > 100 µM (inactive) and the GI50 (SW-620) was > 100 µM (inactive). The GI50 (T47D) was > 100 µM (inactive), the GI50 (U-251) was > 100 µM (inactive) and the GI50 (UACC-257) was > 100 µM (inactive). For the same compound, the GI50 (UACC-62) was > 100 µM (inactive) and the GI50 (UO-31) was > 100 µM (inactive).
